Measurements: paper PMC9936582, “Sulfamate Acetamides as Self-Immolative Electrophiles for Covalent Ligand-Directed Release Chemistry” (Journal of the American Chemical Society, 2023)

Test system: Mino cells
Assay: Competitive pull-down proteomics with ibrutinib alkyne probe in Mino cells
Assay type: cell-based, human
Conditions: 1 µM compound 1 h
Protocol: (10 μM). This was followed by a reaction with biotin-azide using CuAAC, enrichment of the labeled proteins, and their quantification by tryptic digestion and LC/MS/MS analysis.
The samples were then precipitated with methanol: chloroform (1 mL of methanol, 250 μL of chloroform, and 750 μL of water), washed with 1 mL of methanol, and air-dried. The samples were solubilized and bound to streptavidin agarose beads in PBS for 3 h at 25 °C. The beads were washed, centrifuged, and resuspended in Tris 50 mM pH 8 and transferred to a clean Eppendorf tube. After this, the bound proteins were eluted by boiling with 5% SDS then reduced with DTT, alkylated with iodoacetamide, and digested with trypsin. The samples were run on LC/MS/MS. The detailed procedure is available in the Supplementary Information. The mass spectrometry proteomics data have been deposited to the ProteomeXchange Consortium via the PRIDE[67] partner repository with the dataset identifiers PXD038301 and PXD038375.
400 µL of 0.1% IGEPAL/PBS were added, and the beads were washed 3 times with 0.1% IGEPAL/PBS, 3 times PBS and 3 times water. The peptides were eluted by incubation with 200 µL of 50% acetonitrile + 0.1% TFA for 5 min, followed by two more portions of 100 µL of 50% acetonitrile + 0.1% TFA. The samples were dried by speedvac, and further purified using Oasis desalting columns (Waters), after which they were dried and run on the instrument.
Pull-down samples preparation […]
incubation with 10 μM “probe 4” for another hour. The samples were prepared in quadruplicates. The cells were washed with cold PBS, from the flasks and frozen. Then, each sample was lysed in 200 μL of […]
The protein in the supernatant was quantified using BCA. For each sample, 250 μL of 1.7 mg/mL was prepared. At this point, 5 μL of 5 mM biotin azide and 9 μL of 100 mM CuSO4/THPTA complex were added. The click reaction was initiated by the addition of 7.5 μL of 150 mM sodium ascorbate, and the samples are incubated at room temperature for 1 h. The samples were then precipitated with methanol/chloroform (1 mL methanol, 250 μL chloroform, 750 μL water), washed with 1 mL of methanol, and air-dried. […]
and heated to 95 °C for 5 min. The samples were then diluted to 1.5 mL with PBS, and 50 μL of streptavidin agarose beads, prewashed with 0.2% SDS in PBS, was added, followed by 3 h incubation at room temperature. Following the incubation, the beads were centrifuged at 2000g for 2 min and washed four times with the following buffers (4 mL in each wash): 2% SDS; 0.1% sodium deoxycholate, 1% Triton X-100, 0.5 M NaCl, 1 mM EDTA, 50 mM HEPES pH = 7.5; 0.25 M NaCl, 0.5% IGEPAL, 0.5% sodium deoxycholate, 1 mM EDTA, 10 mM Tris pH = 8.1; 50 mM Tris pH = 7.4, 50 mM NaCl. […]
with heating to 95 °C for 6 min and occasional vortexing. Finally, the beads were spun down (2 min 2000g) and 80 μL of supernatant was removed to separate tubes. […]
had cooled, 4 μL of iodoacetamide (0.2 M) were added, and the samples were incubated in the dark for 40 min at room temperature. […]
samples were diluted 6-fold with 90% methanol + 50 mM ammonium bicarbonate. The samples were then […]
loaded on S-trap micro columns (Protify), and the columns were washed three times with 150 μL of 90% methanol + 50 mM ammonium bicarbonate. Then, 20 μL of 0.05 μg/μL of trypsin in 50 mM ammonium bicarbonate was added to the columns and the samples were incubated at 47 °C for 90 min. Then, 40 μL of 50 mM ammonium bicarbonate was added, followed by centrifugation and addition of 1 μL of 0.5 μg/μL trypsin to the eluate, which was incubated at 37 °C overnight. The column itself was then eluted using 40 μL of 0.2% formic acid and 40 μL 0.2% formic acid in 50% acetonitrile into a separate tube, which was kept at 4 °C. The two eluates were then combined and evaporated. The samples were further desalted using […]

CNS(=O)(=O)OCC(=O)N1CCC[C@@H](n2nc(-c3ccc(Oc4ccccc4)cc3)c3c(N)ncnc32)C1 [3c]
Log2(Fold Change) (4F2_HUMAN): -0.003946
Log2(Fold Change) (AATM_HUMAN): 0.8443
Log2(Fold Change) (ACSF3_HUMAN): -0.02243
Log2(Fold Change) (AHNK_HUMAN): 0.1794
Log2(Fold Change) (ALG1_HUMAN): 0.4128
Log2(Fold Change) (ANXA1_HUMAN): -1.116
Log2(Fold Change) (APEX1_HUMAN): 0.3544
Log2(Fold Change) (ARP3_HUMAN;ARP3B_HUMAN;ARP3C_HUMAN): 0.7666
Log2(Fold Change) (AT1A1_HUMAN;AT1A2_HUMAN;AT1A4_HUMAN;ATP4A_HUMAN;AT12A_HUMAN): 0.2874
Log2(Fold Change) (ATP5H_HUMAN): 0.2249
Log2(Fold Change) (ATPK_HUMAN): 0.3336
Log2(Fold Change) (ATPO_HUMAN): 1.122
Log2(Fold Change) (ATX10_HUMAN): 1.148
Log2(Fold Change) (BST2_HUMAN): 1.515
Log2(Fold Change) (BZW1_HUMAN): 1.5907
Log2(Fold Change) (C1TM_HUMAN): 0.2312
Log2(Fold Change) (CALL5_HUMAN): -0.3562
Log2(Fold Change) (CD20_HUMAN): 0.973
Log2(Fold Change) (CD38_HUMAN): 0.2424
Log2(Fold Change) (CLCA_HUMAN): 0.2558
Log2(Fold Change) (CLH1_HUMAN;CLH2_HUMAN): -0.3445
Log2(Fold Change) (COX2_HUMAN): 0.13
Log2(Fold Change) (CRERF_HUMAN): -0.08019
Log2(Fold Change) (DD19B_HUMAN;DD19A_HUMAN): 0.602
Log2(Fold Change) (DDX3X_HUMAN;DDX3Y_HUMAN;DDX4_HUMAN): 0.1847
Log2(Fold Change) (DNJC7_HUMAN): -0.02484
Log2(Fold Change) (DSC1_HUMAN): -0.8463
Log2(Fold Change) (EF1B_HUMAN): -0.1869
Log2(Fold Change) (EPIPL_HUMAN): -1.263
Log2(Fold Change) (FPPS_HUMAN): -0.1485
Log2(Fold Change) (GCR_HUMAN): -0.05313
Log2(Fold Change) (GLYM_HUMAN;GLYC_HUMAN): 0.5085
Log2(Fold Change) (GSDMA_HUMAN): -0.7475
Log2(Fold Change) (HMCS1_HUMAN): 0.08713
Log2(Fold Change) (HXK2_HUMAN;HXK3_HUMAN): 0.7187
Log2(Fold Change) (IF4A1_HUMAN): -0.255
Log2(Fold Change) (IF4A3_HUMAN): 1.002
Log2(Fold Change) (IF4H_HUMAN): 0.7933
Log2(Fold Change) (IGLL5_HUMAN;IGL1_HUMAN;IGLC1_HUMAN): -1.242
Log2(Fold Change) (LAPM5_HUMAN): 0.4417
Log2(Fold Change) (LAT1_HUMAN): -0.2915
Log2(Fold Change) (LMNA_HUMAN): 0.31
Log2(Fold Change) (MATR3_HUMAN): 0.6026
Log2(Fold Change) (MBB1A_HUMAN): 0.2625
Log2(Fold Change) (MCCA_HUMAN): -0.03232
Log2(Fold Change) (MIC19_HUMAN): -0.1615
Log2(Fold Change) (MP2K7_HUMAN): 1.332
Log2(Fold Change) (NCEH1_HUMAN): 0.9366
Log2(Fold Change) (NT5D1_HUMAN): 0.9214
Log2(Fold Change) (NUCL_HUMAN): 0.1005
Log2(Fold Change) (OTUB1_HUMAN): -0.08587
Log2(Fold Change) (P121C_HUMAN;P121A_HUMAN): 0.1409
Log2(Fold Change) (PARK7_HUMAN): 0.4175
Log2(Fold Change) (PCKGM_HUMAN): -0.3825
Log2(Fold Change) (PEBP1_HUMAN): 0.1182
Log2(Fold Change) (PEPL_HUMAN): -0.4806
Log2(Fold Change) (PFKAL_HUMAN): -0.8784
Log2(Fold Change) (PGK1_HUMAN;PGK2_HUMAN): 0.09163
Log2(Fold Change) (PIP_HUMAN): -1.053
Log2(Fold Change) (PLAK_HUMAN;CTNB1_HUMAN): -0.3765
Log2(Fold Change) (POF1B_HUMAN): -0.7349
Log2(Fold Change) (PSA3_HUMAN): 0.7265
Log2(Fold Change) (PSB8_HUMAN): 0.6836
Log2(Fold Change) (RAB1A_HUMAN;RAB1B_HUMAN;RAB1C_HUMAN): 0.7505
Log2(Fold Change) (RANG_HUMAN;IPKB_HUMAN): -0.3363
Log2(Fold Change) (RAP1B_HUMAN;RAP1A_HUMAN;RP1BL_HUMAN;RAB3D_HUMAN): -0.2646
Log2(Fold Change) (RFTN1_HUMAN): 0.04464
Log2(Fold Change) (RL13A_HUMAN;R13P3_HUMAN): 0.8429
Log2(Fold Change) (RL18_HUMAN): 0.1972
Log2(Fold Change) (RLA1_HUMAN): -0.4322
Log2(Fold Change) (RN3P2_HUMAN): -0.1916
Log2(Fold Change) (RS28_HUMAN): 1.548
Log2(Fold Change) (RTN4_HUMAN): 0.4072
Log2(Fold Change) (RUVB2_HUMAN): 0.8939
Log2(Fold Change) (S38A1_HUMAN): 1.036
Log2(Fold Change) (S61A1_HUMAN;S61A2_HUMAN): 1.044
Log2(Fold Change) (SAE2_HUMAN): 0.8904
Log2(Fold Change) (SATT_HUMAN): 0.02917
Log2(Fold Change) (SCRB1_HUMAN): 0.4543
Log2(Fold Change) (SIAT1_HUMAN): 1.583
Log2(Fold Change) (SO4A1_HUMAN): 1.603
Log2(Fold Change) (SPB4_HUMAN): 1.011
Log2(Fold Change) (SPB12_HUMAN): 0.1706
Log2(Fold Change) (SSDH_HUMAN): 0.9154
Log2(Fold Change) (SUCB1_HUMAN): 0.5342
Log2(Fold Change) (TAP1_HUMAN): -1.372
Log2(Fold Change) (TAP2_HUMAN;ABCB8_HUMAN;ABCBA_HUMAN): -0.08664
Log2(Fold Change) (TBB2B_HUMAN;TBB2A_HUMAN): -0.7631
Log2(Fold Change) (TSN_HUMAN): 0.3727
Log2(Fold Change) (TX264_HUMAN): 0.3312
Log2(Fold Change) (UB2V2_HUMAN;UB2V1_HUMAN): 1.079
Log2(Fold Change) (UBP5_HUMAN): -0.3855
Log2(Fold Change) (UBP14_HUMAN): 1.084
Log2(Fold Change) (URP2_HUMAN): 1.649
Log2(Fold Change) (USMG5_HUMAN): 0.5625
Log2(Fold Change) (VDAC1_HUMAN): 0.3406
Log2(Fold Change) (VEZA_HUMAN): 1.904
Log2(Fold Change) (XPO2_HUMAN): 0.4199
Log2(Fold Change) (XPO5_HUMAN): -0.04737
Log2(Fold Change) (ZDHC8_HUMAN): -1.5861
